Measurements published in patent US20140271604A1, “HDAC Inhibitor Polymorphic Forms and Methods of Use” (priority 2013, published 2014).
Entries after “also recorded” stand apart in the source; their conditions may differ.

Columns and labels:
[1] = Solubility assessment experiments in organic solvents
Experimental: (§1) Solubility assessment experiments were carried out in a variety of solvents followed by storage in a climate chamber for 48 to 72 hours at 40 degrees centigrade and 75% relative humidity.

[2] = Stability study in climate chamber (48-72 h, 40° C./75% RH), form assigned by XRPD; conditions: for XRPD Form b: form assigned after the stability studies / XRPD Form c: form assigned after the stability studies: at 40° C./75% RH; for XRPD Form b: form assigned after the stability studies: samples from anti-solvent addition, label = form before stability; for Stability after storage in a climate chamber / XRPD pattern following storage exposure in the climate chamber: 48 to 72 hours at 40 degrees centigrade and 75% relative humidity
Experimental: as §1

[3] = Storage of samples under ambient conditions, form assigned by XRPD; format: physicochemical
[4] = 48-72 H, samples from cooling-evaporative crystallization, Table 6, label = form after recrystallization
[5] = 1-1.5 weeks ambient, cooling-evaporative crystallization, Table 6, label = form after recrystallization
[6] = 1.5-2 weeks ambient, solvent-drop grinding, Table 8, label = form after grinding
[7] = 46-72 H, samples from solvent-drop grinding, Table 8, label = form after grinding
[8] = 1-1.5 weeks ambient, cooling-evaporative crystallization, Table 7, label = form after recrystallization
[9] = 48-72 H, samples from cooling-evaporative crystallization, Table 7, label = form after recrystallization
[10] = 1-1.5 weeks ambient, slurry conversion, Table 9, label = form after slurry
[11] = 48-72 H, samples from slurry conversion, Table 9, label = form after slurry

Structure (SMILES): CC(C)[C@H](C(=O)Nc1ccc(C(=O)NO)cc1)c1ccccc1 [Am_oily]
- Concentration ([1]; Table 1, solvent NMP): 482500 µg/mL
- XRPD Form b: form assigned after the stability studies ([2]; 48-72 H, Table 5): Form A

Structure (SMILES): CC(C)C(C(=O)Nc1ccc(C(=O)NO)cc1)c1ccccc1 (stereo not shown) [Form A + Am]
- XRPD Form b: form assigned after storage under ambient conditions ([3]; 1-1.5 weeks ambient, cooling-evaporative crystallization, Table 6, label = form after recrystallization, experiment ML13, solvent 1 Butyl Acetate): Form U1 + Am*
- XRPD Form b: form assigned after storage under ambient conditions ([3]; 1-1.5 weeks ambient, cooling-evaporative crystallization, Table 6, label = form after recrystallization, experiment ML14, solvent 1 Chlorobenzene): Form A_wet**
- Concentration ([1]; Table 1, solvent Amyl Ether): <1000 µg/mL
- XRPD Form c: form assigned after the stability studies [2, 4]: Form A + Am*

Structure (SMILES): CC(C)C(C(=O)Nc1ccc(C(=O)NO)cc1)c1ccccc1 (stereo not shown) [Form A + Form B1]
- XRPD Form b: form assigned after storage under ambient conditions [3, 5]: Form B1_wet**
- XRPD Form b: form assigned after storage under ambient conditions [3, 6]: Form A_wet**
- Concentration ([1]; Table 2, solvent Acetone): 108900 µg/mL
- XRPD Form c: form assigned after the stability studies [2, 7]: Form A
- XRPD Form c: form assigned after the stability studies [2, 4]: Form A_wet**

Structure (SMILES): CC(C)[C@H](C(=O)Nc1ccc(C(=O)NO)cc1)c1ccccc1 [Form A, (S)—N-hydroxy-4-(3-methyl-2-phenylbutanamido)benzamide]
- XRPD Form b: form assigned after storage under ambient conditions [3, 5]: Form A
- XRPD Form b: form assigned after storage under ambient conditions [3, 8]: Form A
- XRPD Form b: form assigned after storage under ambient conditions ([3]; 1.5-2 weeks ambient, solvent-drop grinding, Table 8, label = form after grinding, ground with a drop of Octanol-1): Form A
- XRPD Form b: form assigned after storage under ambient conditions ([3]; 1.5-2 weeks ambient, solvent-drop grinding, Table 8, label = form after grinding, ground with a drop of Propyl acetate): Form A5a
- Concentration ([1]; Table 2, solvent Amyl Ether): 18400 µg/mL
- Concentration ([1]; Table 2, solvent Dimethyl-4-heptanone 2,6-): 20300 µg/mL
- Concentration ([1]; Table 2, solvent Hexafluorobenzene): 21400 µg/mL
- Concentration ([1]; Table 2, solvent Nitromethane): 21200 µg/mL
- Concentration ([1]; Table 2, solvent Toluene): 18800 µg/mL
- Concentration ([1]; Table 2, solvent Trifluoroethanol, 2,2,2-): 20600 µg/mL
- XRPD Form c: form assigned after the stability studies [2, 7]: Form A
- XRPD Form b: form assigned after the stability studies ([2]; 48-72 H, Table 3): Form A
- XRPD Form c: form assigned after the stability studies [2, 9]: Form A

Structure (SMILES): CC(C)[C@H](C(=O)Nc1ccc(C(=O)NO)cc1)c1ccccc1 [Form A_wet]
- XRPD Form b: form assigned after storage under ambient conditions ([3]; 1-1.5 weeks ambient, cooling-evaporative crystallization, Table 6, label = form after recrystallization, experiment ML7, solvent 1 Dichloroethane): Form A
- XRPD Form b: form assigned after storage under ambient conditions ([3]; 1-1.5 weeks ambient, cooling-evaporative crystallization, Table 6, label = form after recrystallization, experiment ML8, solvent 1 Fluorbenzene): Form A_wet**
- XRPD Form b: form assigned after storage under ambient conditions ([3]; 1-1.5 weeks ambient, cooling-evaporative crystallization, Table 6, label = form after recrystallization, experiment ML32, solvent 1 Heptane, N-): Form U1 + Am*
- XRPD Form b: form assigned after storage under ambient conditions [3, 6]: Form A_wet**
- Concentration ([1]; Table 1, solvent Hexafluorobenzene): <1000 µg/mL
- XRPD Form c: form assigned after the stability studies [2, 7]: Form A
- XRPD Form b: form assigned after the stability studies ([2]; 48-72 H, Table 3): Form A + Am*

Structure (SMILES): CC(C)C(C(=O)Nc1ccc(C(=O)NO)cc1)c1ccccc1 (stereo not shown) [Form B1 + Form D1]
- Concentration ([1]; Table 2, solvent Dioxane, 1,4-): 32300 µg/mL

Structure (SMILES): CC(C)[C@H](C(=O)Nc1ccc(C(=O)NO)cc1)c1ccccc1 [Form B1, (S)—N-hydroxy-4-(3-methyl-2-phenylbutanamido)benzamide]
- XRPD Form b: form assigned after storage under ambient conditions [3, 8]: Form B1
- Concentration ([1]; Table 1, solvent Dimethyl-4-heptanone 2,6-): 2000 µg/mL
- Concentration ([1]; Table 2, solvent Chloroform): 20800 µg/mL
- XRPD Form c: form assigned after the stability studies [2, 9]: Form B1
- Stability after storage in a climate chamber [2]: exhibited a particular degree of stability

Structure (SMILES): CC(C)[C@H](C(=O)Nc1ccc(C(=O)NO)cc1)c1ccccc1 [Form B1_wet]
- XRPD Form b: form assigned after storage under ambient conditions [3, 8]: Form B1_wet**
- XRPD Form b: form assigned after storage under ambient conditions [3, 10]: Form B1
- Concentration ([1]; Table 2, solvent Isophorone): 243700 µg/mL
- XRPD Form c: form assigned after the stability studies [2, 11]: Form A5a

Structure (SMILES): CC(C)[C@H](C(=O)Nc1ccc(C(=O)NO)cc1)c1ccccc1 [Form C, (S)—N-hydroxy-4-(3-methyl-2-phenylbutanamido)benzamide]
- Concentration ([1]; Table 2, solvent Dimethyl Sulfoxide): 472500 µg/mL

Structure (SMILES): CC(C)[C@H](C(=O)Nc1ccc(C(=O)NO)cc1)c1ccccc1 [Form D1, (S)—N-hydroxy-4-(3-methyl-2-phenylbutanamido)benzamide]
- XRPD Form b: form assigned after storage under ambient conditions [3, 8]: Form D1
- XRPD Form b: form assigned after storage under ambient conditions [3, 6]: Form D1
- Concentration ([1]; Table 2, solvent Nitrobenzene): 19700 µg/mL
- XRPD Form c: form assigned after the stability studies [2, 7]: Form A
- XRPD Form b: form assigned after the stability studies ([2]; 48-72 H, Table 5): Form D2 + Am*
- XRPD Form c: form assigned after the stability studies [2, 9]: Form A

Structure (SMILES): CC(C)[C@H](C(=O)Nc1ccc(C(=O)NO)cc1)c1ccccc1 [Form M1, (S)—N-hydroxy-4-(3-methyl-2-phenylbutanamido)benzamide]
- XRPD Form b: form assigned after storage under ambient conditions [3, 8]: Form M1
- XRPD Form c: form assigned after the stability studies [2, 9]: Form M1
- Stability after storage in a climate chamber [2]: exhibited a particular degree of stability
- XRPD pattern following storage exposure in the climate chamber [2]: remained unchanged

Structure (SMILES): CC(C)[C@H](C(=O)Nc1ccc(C(=O)NO)cc1)c1ccccc1 [Form M2, (S)—N-hydroxy-4-(3-methyl-2-phenylbutanamido)benzamide]
- XRPD Form b: form assigned after storage under ambient conditions [3, 8]: Form M2
- XRPD Form c: form assigned after the stability studies [2, 9]: Form M2
- Stability after storage in a climate chamber [2]: exhibited a particular degree of stability
- XRPD pattern following storage exposure in the climate chamber [2]: remained unchanged

Structure (SMILES): CC(C)[C@H](C(=O)Nc1ccc(C(=O)NO)cc1)c1ccccc1 [Form R, (S)—N-hydroxy-4-(3-methyl-2-phenylbutanamido)benzamide]
- XRPD Form b: form assigned after storage under ambient conditions [3, 8]: Form R
- XRPD Form c: form assigned after the stability studies [2, 9]: Form A

Structure (SMILES): CC(C)[C@H](C(=O)Nc1ccc(C(=O)NO)cc1)c1ccccc1 [Form X_gel, (S)—N-hydroxy-4-(3-methyl-2-phenylbutanamido)benzamide]
- XRPD Form b: form assigned after storage under ambient conditions [3, 5]: Form U2 + Am*
- XRPD Form c: form assigned after the stability studies [2, 4]: Form A_wet**

Structure (SMILES): CC(C)C(C(=O)Nc1ccc(C(=O)NO)cc1)c1ccccc1 (stereo not shown) [Form Y + Am]
- XRPD Form b: form assigned after storage under ambient conditions [3, 10]: Form M2 + Am*
- XRPD Form c: form assigned after the stability studies [2, 11]: Form M2

Structure (SMILES): CC(C)[C@H](C(=O)Nc1ccc(C(=O)NO)cc1)c1ccccc1 [Form Z_wet]
- XRPD Form b: form assigned after storage under ambient conditions [3, 5]: Form U1 + Am*
- XRPD Form c: form assigned after the stability studies [2, 4]: Form Z_wet**

Structure (SMILES): CC(C)[C@H](C(=O)Nc1ccc(C(=O)NO)cc1)c1ccccc1 [Wet sample]
- XRPD Form b: form assigned after storage under ambient conditions [3, 5]: Form D1_wet**
- XRPD Form b: form assigned after the stability studies ([2]; 48-72 H, Table 3): Form A + Am*; also recorded: Form W + Am*
- XRPD Form c: form assigned after the stability studies [2, 4]: Form A
